In PMC6027465, “Benzamide-4-Sulfonamides Are Effective Human Carbonic Anhydrase I, II, VII, and IX Inhibitors” (Metabolites, 2018):

How the values were obtained:
MgCA = target: T1, MgCA (Malassezia globosa, UniProt A8Q1N3); assay: biochemical
T1 construct: gene MGL_1814
T1 sequence (A8Q1N3 1-241): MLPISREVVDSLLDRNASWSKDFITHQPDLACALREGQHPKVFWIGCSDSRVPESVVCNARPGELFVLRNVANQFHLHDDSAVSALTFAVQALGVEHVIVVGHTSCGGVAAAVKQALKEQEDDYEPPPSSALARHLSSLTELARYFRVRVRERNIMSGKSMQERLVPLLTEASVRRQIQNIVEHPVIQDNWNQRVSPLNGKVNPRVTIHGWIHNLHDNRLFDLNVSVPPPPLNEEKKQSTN

hCA I = target: T2, hCA I (Homo sapiens, UniProt P00915); type: biochemical
T2 construct: gene CA1; recombinant
T2 sequence (P00915 2-261): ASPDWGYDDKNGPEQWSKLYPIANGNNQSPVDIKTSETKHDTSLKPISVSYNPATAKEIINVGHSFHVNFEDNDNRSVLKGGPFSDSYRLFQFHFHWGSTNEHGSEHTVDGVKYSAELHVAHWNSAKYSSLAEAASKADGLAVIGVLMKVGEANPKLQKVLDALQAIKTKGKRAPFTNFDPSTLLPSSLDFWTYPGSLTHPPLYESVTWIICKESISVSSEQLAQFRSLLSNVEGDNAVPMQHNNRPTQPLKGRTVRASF

VchCAγ = target: T3, VchCAγ; type: biochemical, Vibrio cholerae; conditions: CO2 […], […] TRIS pH […] Na2SO4, […] °C, […] min preincubation
T3 construct: gene VchCAgamma

hCA II = target: T4, hCA II (Homo sapiens, UniProt P00918); type: biochemical
T4 construct: gene CA2; recombinant

hCA VII = target: T5, hCA VII (Homo sapiens, UniProt P43166); type: biochemical
T5 construct: gene CA7; recombinant
T5 sequence (P43166 whole entry): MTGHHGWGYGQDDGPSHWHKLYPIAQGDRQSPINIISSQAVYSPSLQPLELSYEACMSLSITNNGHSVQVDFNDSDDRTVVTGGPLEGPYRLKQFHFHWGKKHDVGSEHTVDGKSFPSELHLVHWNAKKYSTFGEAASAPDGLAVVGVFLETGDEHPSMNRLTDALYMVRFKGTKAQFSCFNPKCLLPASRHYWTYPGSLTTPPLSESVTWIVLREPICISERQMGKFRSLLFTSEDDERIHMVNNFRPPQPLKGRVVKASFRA

VchCAβ = target: T6, VchCAβ (Vibrio cholerae, UniProt A0A086SLX8); type: biochemical; conditions: read-out: VchCAβ; CO2 […], […] TRIS pH […] Na2SO4, […] °C, […] min preincubation
T6 construct: gene can
T6 sequence (A0A086SLX8 1-222): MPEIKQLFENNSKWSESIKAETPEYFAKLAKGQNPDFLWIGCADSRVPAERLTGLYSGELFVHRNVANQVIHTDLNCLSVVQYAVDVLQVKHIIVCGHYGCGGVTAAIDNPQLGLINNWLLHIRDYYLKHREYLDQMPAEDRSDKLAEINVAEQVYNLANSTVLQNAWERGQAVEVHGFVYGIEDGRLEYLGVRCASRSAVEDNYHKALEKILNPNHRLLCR

Compound	Ki (MgCA)	Ki (hCA I)	Ki (VchCAγ)	Ki (hCA II)	Ki (hCA VII)	Ki (VchCAβ)
CCCNC(=O)c1ccc(S(N)(=O)=O)cc1 [3b, N-Propyl-4-Sulfamoylbenzamide]	3.92 µM	8.2 nM	636 nM	3.5 nM	0.4 nM	7680 nM
COC(=O)[C@H](Cc1ccccc1)NC(=O)c1ccc(S(N)(=O)=O)cc1 [3l, Methyl (4-Sulfamoylbenzoyl)-L-Phenylalaninate]	0.517 µM	5.6 nM	409 nM	3.3 nM	0.5 nM	663 nM
CCNC(=O)c1ccc(S(N)(=O)=O)cc1 [3a, N-Ethyl-4-Sulfamoylbenzamide]	7.67 µM	334 nM	929 nM	5.3 nM	26.7 nM	7080 nM
COC(=O)C[C@@H](NC(=O)c1ccc(S(N)(=O)=O)cc1)C(=O)OC [3i, Dimethyl (4-Sulfamoylbenzoyl)-D-Aspartate]	6.95 µM	75.7 nM	744 nM	6.1 nM	0.7 nM	910 nM
COC(=O)C(NC(=O)c1ccc(S(N)(=O)=O)cc1)C(C)C (racemic) [3f, Methyl (4-Sulfamoylbenzoyl)-DL-Valinate]	5.5 µM	57.8 nM	4460 nM	4.5 nM	3.7 nM	8170 nM
COC(=O)C(C)NC(=O)c1ccc(S(N)(=O)=O)cc1 (racemic) [3j, Methyl (4-Sulfamoylbenzoyl)-DL-Alaninate]	0.0873 µM	85.3 nM	271 nM	6.1 nM	3.7 nM	412 nM
NS(=O)(=O)c1ccc(C(=O)N2CCOCC2)cc1 [3d, 4-(Morpholine-4-Carbonyl)Benzenesulfonamide]	5.88 µM	8.7 nM	693 nM	6.2 nM	0.8 nM	8590 nM
NS(=O)(=O)c1ccc(C(=O)N2CCCCC2)cc1 [3e, 4-(Piperidine-1-Carbonyl)Benzenesulfonamide]	3.98 µM		453 nM			749 nM
COC(=O)[C@H](CC(C)C)NC(=O)c1ccc(S(N)(=O)=O)cc1 [3h, Methyl (4-Sulfamoylbenzoyl)-L-Leucinate]	0.763 µM	5.6 nM	891 nM	3.7 nM	0.4 nM	719 nM
C#CCNC(=O)c1ccc(S(N)(=O)=O)cc1 [3c, N-(Prop-2-Yn-1-Yl)-4-Sulfamoylbenzamide]	5.78 µM		383 nM		0.6 nM	741 nM
CCOC(=O)CCCNC(=O)c1ccc(S(N)(=O)=O)cc1 [3k, Ethyl 4-(4-Sulfamoylbenzamido)Butanoate]	6.69 µM	5.3 nM	756 nM	4 nM	0.4 nM	953 nM
COC(=O)CC[C@@H](NC(=O)c1ccc(S(N)(=O)=O)cc1)C(=O)OC [3g, Dimethyl (4-Sulfamoylbenzoyl)-D-Glutamate]	0.632 µM	8.2 nM	503 nM	5.2 nM	0.6 nM	862 nM
